{"source": "patent US5344821A", "about": "“Pheromonostatic peptide used to disrupt mating of the corn earworm, helicoverpa zea” (The United States of America, as represented by the …, priority 1993, dated 1994)", "key": {"female H. zea": {"tested_on": "female H. zea", "test": "Depletion of female sex pheromone after transfer of the polypeptide during mating", "format": "in vivo, Helicoverpa zea", "method": "This invention relates to a polypeptide which is transferred from the male corn earworm moth to the female during mating. After transfer, a decline in the production of sex pheromone is observed for at least 24 hours and the female becomes unattractive to males over that period of time. A continued presence of this peptide within the female serves as an effective means of insect control by rendering it permanently unattractive. The peptide is also useful in the study of insect physiology.\nNon-volatile chemicals may also trigger behavioral changes. As described above, the neuropeptide PBAN initiates pheromone biosynthesis. In addition, another polypeptide, pheromonostatic peptide (PSP) is produced in the reproductive tract of male H. zea and is transferred with spermatozoa to the female during mating."}, "H. zea females": {"tested_on": "H. zea females", "test": "Bioassay: pheromone content of ligated, PBAN-injected females after a second injection with the isolated material", "format": "in vivo, Helicoverpa zea", "method": "The activity of the two peptides was evaluated by bioassay. Females were first ligated between head & thorax to remove their own source of PBAN; they were then injected with PBAN to stimulate pheromone biosynthesis, followed by a later injection with the isolated material.\nFemales in their 1st or 2nd photophase after emergence are ligated between the head and thorax with silk thread. The following morning, approximately 16 hours later, the females are injected with 2 picomoles of the pheromonotropic peptide PBAN. One hour later, they are injected a second time with fractionated material obtained as described supra. Two hours later, the tip of the abdomen (at the 7th abdominal segment), containing the ovipositor and the glandular tissue producing sex pheromone, is excised and extracted with 5-15 μl heptane The amount of the major component of sex pheromone, Z-11-hexadecenal, is quantified by gas chromatography. Females receiving saline (control) at the second injection typically contain 50-150 nanograms pheromone in the extract while females having been injected with the peptides extracted from the male reproductive tract are found to have 1-5 nanograms."}, "H. zea males [1]": {"tested_on": "H. zea males", "conditions": "caged males; cited from earlier work"}, "H. zea males [2]": {"tested_on": "H. zea males", "conditions": "field experiments, sticky or electric grid traps; cited from earlier work"}, "corn earworm moths": {"tested_on": "corn earworm moths", "conditions": "cited from earlier work"}, "tobacco budworm moths": {"tested_on": "tobacco budworm moths", "conditions": "cited from earlier work"}}, "note": "Structures can show the parent of a compound that is named as a salt.", "data": [{"compound": "PSP: basic, 57-amino acid peptide, 6615 daltons, one disulfide, pyro-Glu N-terminus, amidated C-terminus, from male H. zea accessory glands and duplex", "values": [{"measurement": "duration of the pheromone depletion", "setting": "female H. zea; after transfer during mating", "value": "at least 24 hours"}, {"measurement": "effect on female sex pheromone after transfer at mating", "setting": "female H. zea; transferred with spermatozoa from male to female during mating", "value": "causes a depletion of the sex pheromone"}, {"measurement": "pheromone accumulation with versus without PSP injection", "setting": "H. zea females; ligated females injected with PBAN, then with the isolated material", "value": "females receiving no PSP typically accumulated pheromone in much higher amounts than those having been injected with PSP"}, {"measurement": "amount of Z-11-hexadecenal (major component of sex pheromone) in the ovipositor/gland extract", "setting": "H. zea females; ligated females, 2 picomoles PBAN, test material injected 1 hour later, gland excised 2 hours later, gas chromatography, saline control 50-150 nanograms", "value": "1-5 nanograms"}]}, {"compound": "CCCC/C=C\\CCCCCCCCCC=O", "note": "[Z-11-hexadecenal]", "values": [{"measurement": "sex stimulation activity", "setting": "H. zea males [1]", "value": "strong sex stimulation activity"}, {"measurement": "catch of males in traps in the presence of the compound", "setting": "H. zea males [2]", "value": "inhibited"}]}, {"compound": "CCCC/C=C\\CCCCCCCCOC=O", "note": "[(Z)-9-TDF, (Z)-9-tetradecen-1-ol formate]", "values": [{"measurement": "reduction of mating", "setting": "corn earworm moths", "value": "effective in reducing mating"}, {"measurement": "reduction of mating", "setting": "tobacco budworm moths", "value": "effective in reducing mating"}]}]}
